The numbers were not newly measured in patent US20130184316A1, “METHODS FOR DIAGNOSING AND TREATING CONCUSSIVE DISORDERS” (priority 2010, published 2013), which cites them from elsewhere.

The subject of series [1] is patients with idiopathic cerebellar ataxia. Conditions: literature (Sprenger et al.); cited from earlier work.
Series [2] has as its system patients with type-2 episodic ataxia (EA2). The settings on record: literature reports; cited from earlier work.

On to `Nc1ccncc1N` [3,4-DAP, 3,4-diamino pyridine], for which the “Gravity-dependent symptoms associated with ataxic episodes” value in series [1] is “effective in ameliorating some gravity-dependent symptoms”.
Turning to `CC(=O)Nc1nnc(S(N)(=O)=O)s1` [acetazolamide], the “Symptoms of EA2 (including downbeat nystagmus)” value in series [2] is “attenuated”.
